pIC50: −log10 of the molar value.
Columns and labels:
EGFR (human) [1] = biological target: EGFR (human) (UniProt P00533); settings: a431
EGFR (human) [2] = biological target: EGFR (human) (UniProt P00533)

Chain of EGFR (human) (P00533 whole entry, looked up): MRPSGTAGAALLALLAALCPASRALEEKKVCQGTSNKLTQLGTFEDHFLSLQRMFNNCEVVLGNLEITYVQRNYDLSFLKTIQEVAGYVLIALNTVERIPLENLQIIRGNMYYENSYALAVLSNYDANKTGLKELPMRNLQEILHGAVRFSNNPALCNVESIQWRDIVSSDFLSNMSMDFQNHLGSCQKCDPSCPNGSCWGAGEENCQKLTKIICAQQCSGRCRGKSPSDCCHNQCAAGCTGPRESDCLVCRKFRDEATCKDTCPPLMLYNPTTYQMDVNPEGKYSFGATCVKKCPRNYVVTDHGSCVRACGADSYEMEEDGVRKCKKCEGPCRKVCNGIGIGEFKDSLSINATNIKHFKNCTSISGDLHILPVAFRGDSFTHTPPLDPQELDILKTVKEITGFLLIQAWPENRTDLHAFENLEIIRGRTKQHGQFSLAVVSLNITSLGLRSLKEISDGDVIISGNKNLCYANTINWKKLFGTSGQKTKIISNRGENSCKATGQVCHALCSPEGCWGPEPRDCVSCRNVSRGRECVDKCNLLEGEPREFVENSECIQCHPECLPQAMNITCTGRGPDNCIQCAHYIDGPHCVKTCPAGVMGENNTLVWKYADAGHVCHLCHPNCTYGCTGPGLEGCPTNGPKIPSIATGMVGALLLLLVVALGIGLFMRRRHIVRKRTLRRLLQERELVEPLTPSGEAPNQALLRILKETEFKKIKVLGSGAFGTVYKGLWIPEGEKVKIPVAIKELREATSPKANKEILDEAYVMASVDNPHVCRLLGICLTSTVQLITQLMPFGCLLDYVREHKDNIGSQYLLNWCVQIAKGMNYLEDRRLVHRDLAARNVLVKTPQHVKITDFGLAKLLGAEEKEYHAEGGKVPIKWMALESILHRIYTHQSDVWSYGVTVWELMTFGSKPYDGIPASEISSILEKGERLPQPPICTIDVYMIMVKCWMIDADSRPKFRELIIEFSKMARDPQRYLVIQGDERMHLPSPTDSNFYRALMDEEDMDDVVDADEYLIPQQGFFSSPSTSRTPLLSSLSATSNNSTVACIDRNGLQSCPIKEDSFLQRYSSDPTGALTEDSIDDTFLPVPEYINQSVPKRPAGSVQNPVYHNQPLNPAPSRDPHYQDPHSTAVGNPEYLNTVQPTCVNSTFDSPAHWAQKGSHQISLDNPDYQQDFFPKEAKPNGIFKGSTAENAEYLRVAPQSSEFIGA

pIC50 (EGFR (human) [1]) | pIC50 (EGFR (human) [2]) | SMILES
6.51 | 7.37 | Fc1cccc(COc2ccc(Nc3ncnc4ccc(-n5cc(CNCCCN6CCOCC6)c(C(F)(F)F)c5)cc34)cc2Cl)c1
7.05 | 6.41 | Cc1ccc(Oc2ccc(Nc3ncnc4ccc(-c5cc[nH]c5)cc34)cc2C)cn1
6.28 | 6.93 | OC(CN1CCN(C2CC2)CC1)Cn1ccc(-c2ccc3ncnc(Nc4ccc(OCc5cccc(F)c5)c(Cl)c4)c3c2)c1 (stereo unspecified)
6.14 | 7.42 | N[C@H]1CCCN(C(=O)Cn2ccc(-c3ccc4ncnc(Nc5ccc(OCc6cccc(F)c6)c(Cl)c5)c4c3)c2)C1
5.54 | 8.22 | O=S1(=O)CCC(O)(CNCc2cc(-c3ccc4ncnc(Nc5ccc6c(cnn6Cc6cccc(F)c6)c5)c4c3)c[nH]2)CC1
5.89 | 6.55 | OC(CN1CCN(Cc2cccnc2)CC1)Cn1ccc(-c2ccc3ncnc(Nc4ccc5c(cnn5Cc5cccc(F)c5)c4)c3c2)c1 (stereo unspecified)
8.00 | 8.22 | Clc1cc(Nc2ncnc3ccc(-n4cccc4)cc23)ccc1OCc1ccccn1
6.89 | 7.22 | CN1CCN(C(=O)c2cn(-c3ccc4ncnc(Nc5ccc(OCc6ccccn6)c(Cl)c5)c4c3)cc2CCO)CC1
5.70 | 6.35 | O=C(Cn1ccc(-c2ccc3ncnc(Nc4ccc(OCc5cccc(F)c5)c(Cl)c4)c3c2)c1)N1CCN(CC2CC2)CC1
6.25 | 7.10 | Fc1cccc(COc2ccc(Nc3ncnc4ccc(-c5ccn(C[C@H]6COCCN6)c5)cc34)cc2Cl)c1
6.30 | 6.61 | CCN(CC)CCN1CCOC(Cn2ccc(-c3ccc4ncnc(Nc5ccc6c(cnn6Cc6cccc(F)c6)c5)c4c3)c2)C1 (stereo unspecified)
7.68 | 7.96 | Fc1ccc(Nc2ncnc3ccc(-c4ccc[nH]4)cc23)cc1Cl
6.41 | 8.15 | OCCc1cn(-c2ccc3ncnc(Nc4ccc(OCc5cccc(F)c5)c(Cl)c4)c3c2)cc1CN1CCCC1
6.49 | 7.51 | O[C@@H](CN1CCOCC1)Cn1ccc(-c2ccc3ncnc(Nc4ccc(OCc5cccc(F)c5)c(Cl)c4)c3c2)c1
6.80 | 8.05 | O=C(NCCN1CCCC1)c1cn(-c2ccc3ncnc(Nc4ccc(OCc5cccc(F)c5)c(Cl)c4)c3c2)cc1CCO
7.52 | 8.15 | O=S1(=O)CCC(O)(CNCc2ccn(-c3ccc4ncnc(Nc5ccc(OCc6cccc(F)c6)c(Cl)c5)c4c3)c2)CC1
7.60 | 7.52 | O=C(NCCN1CCOCC1)c1cn(-c2ccc3ncnc(Nc4ccc(OCc5ccccn5)c(Cl)c4)c3c2)cc1CCO
5.54 |  | Fc1cccc(COc2ccc(Nc3ncnc4ccc(-c5ccn(CCN6CCCCC6)c5)cc34)cc2Cl)c1
5.47 | 7.14 | CNCCn1ccc(-c2ccc3ncnc(Nc4ccc(OCc5cccc(F)c5)c(Cl)c4)c3c2)c1
8.10 | 7.60 | CCN(CC)CCNC(=O)c1cn(-c2ccc3ncnc(Nc4ccc(OCc5ccccn5)c(Cl)c4)c3c2)cc1CCO
6.57 | 7.92 | CS(=O)(=O)CCNCc1cccn1-c1ccc2ncnc(Nc3ccc(OCc4cccc(F)c4)c(Cl)c3)c2c1
6.15 |  | OCCN1CCN(CC(O)Cn2ccc(-c3ccc4ncnc(Nc5ccc(OCc6cccc(F)c6)c(Cl)c5)c4c3)c2)CC1 (stereo unspecified)
6.20 | 6.89 | CC(=O)N[C@@H]1CCN(C(=O)Cn2ccc(-c3ccc4ncnc(Nc5ccc(OCc6cccc(F)c6)c(Cl)c5)c4c3)c2)C1
5.86 | 7.57 | OCC(O)Cn1ccc(-c2ccc3ncnc(Nc4ccc(OCc5cccc(F)c5)c(Cl)c4)c3c2)c1 (stereo unspecified)
6.13 | 8.10 | O[C@@H](CN1CCOCC1)Cn1ccc(-c2ccc3ncnc(Nc4ccc5c(cnn5Cc5cccc(F)c5)c4)c3c2)c1

pIC50 (EGFR (human) [1]) | pIC50 (EGFR (human) [2]) | SMILES
5.75 | 7.77 | CN1CCN(CCn2ccc(-c3ccc4ncnc(Nc5ccc(OCc6cccc(F)c6)c(Cl)c5)c4c3)c2)CC1
6.87 | 8.22 | Cn1cccc1-c1ccc2ncnc(Nc3ccc(OCc4cccc(F)c4)c(Cl)c3)c2c1
6.86 |  | NC(=O)C1CCN(CC(O)Cn2ccc(-c3ccc4ncnc(Nc5ccc(OCc6cccc(F)c6)c(Cl)c5)c4c3)c2)CC1 (stereo unspecified)
6.46 |  | CC(=O)N[C@@H]1CCN(CC(O)Cn2ccc(-c3ccc4ncnc(Nc5ccc6c(cnn6Cc6cccc(F)c6)c5)c4c3)c2)C1 (stereo partly specified)
5.81 | 7.62 | OC1CCN(CC(O)Cn2ccc(-c3ccc4ncnc(Nc5ccc6c(cnn6Cc6cccc(F)c6)c5)c4c3)c2)CC1 (stereo unspecified)
5.59 | 6.88 | CN(C)[C@@H]1CCN(C(=O)Cn2ccc(-c3ccc4ncnc(Nc5ccc(OCc6cccc(F)c6)c(Cl)c5)c4c3)c2)C1
6.66 |  | OCCc1cn(-c2ccc3ncnc(Nc4ccc(F)c(Cl)c4)c3c2)cc1CN1CCCCC1
6.19 |  | CS(=O)(=O)CCn1ccc(-c2ccc3ncnc(Nc4ccc(OCc5cccc(F)c5)c(Cl)c4)c3c2)c1
6.21 |  | Fc1cccc(Cn2ncc3cc(Nc4ncnc5ccc(-c6ccn(CCN7CCCC7)c6)cc45)ccc32)c1
5.92 |  | O=C1CN(CC(O)Cn2ccc(-c3ccc4ncnc(Nc5ccc(OCc6cccc(F)c6)c(Cl)c5)c4c3)c2)CCN1 (stereo unspecified)
6.44 |  | OC(CN1CC[C@@H](O)C1)Cn1ccc(-c2ccc3ncnc(Nc4ccc(OCc5cccc(F)c5)c(Cl)c4)c3c2)c1 (stereo partly specified)
6.35 |  | Fc1cccc(COc2ccc(Nc3ncnc4ccc(-c5ccn(CCN6CCC(N7CCCCC7)CC6)c5)cc34)cc2Cl)c1
6.68 |  | CN1CCN(Cc2cn(-c3ccc4ncnc(Nc5ccc(F)c(Cl)c5)c4c3)cc2CCO)CC1
6.33 |  | O=S1(=O)CCC(NCC(O)Cn2ccc(-c3ccc4ncnc(Nc5ccc(OCc6cccc(F)c6)c(Cl)c5)c4c3)c2)CC1 (stereo unspecified)
6.56 |  | OCCC1CCN(CC(O)Cn2ccc(-c3ccc4ncnc(Nc5ccc6c(cnn6Cc6cccc(F)c6)c5)c4c3)c2)CC1 (stereo unspecified)
5.93 |  | CS(=O)(=O)N1CCN(CC(O)Cn2ccc(-c3ccc4ncnc(Nc5ccc(OCc6cccc(F)c6)c(Cl)c5)c4c3)c2)CC1 (stereo unspecified)
5.77 |  | CCOC(=O)C1CCCN(CC(O)Cn2ccc(-c3ccc4ncnc(Nc5ccc(OCc6cccc(F)c6)c(Cl)c5)c4c3)c2)C1 (stereo unspecified)
6.07 |  | O=C(Cn1ccc(-c2ccc3ncnc(Nc4ccc(OCc5cccc(F)c5)c(Cl)c4)c3c2)c1)N1CCC(N2CCOCC2)CC1
6.37 |  | Fc1cccc(Cn2ncc3cc(Nc4ncnc5ccc(-c6ccn(CCCN7CCOCC7)c6)cc45)ccc32)c1
6.15 |  | Fc1cccc(Cn2ncc3cc(Nc4ncnc5ccc(-c6ccn(CC7CNCCO7)c6)cc45)ccc32)c1 (stereo unspecified)
6.18 |  | OC1CCN(C[C@H](O)Cn2ccc(-c3ccc4ncnc(Nc5ccc(OCc6cccc(F)c6)c(Cl)c5)c4c3)c2)CC1
6.85 |  | Cc1ccc(Oc2ccc(Nc3ncnc4ccc(-n5cc(CCO)c(C(=O)NCCN6CCCC6)c5)cc34)cc2C)cn1
5.34 |  | OCc1cc(-c2ccc3ncnc(Nc4ccc(OCc5cccc(F)c5)c(Cl)c4)c3c2)c[nH]1
5.70 |  | CCOC(=O)C1CCN(CC(O)Cn2ccc(-c3ccc4ncnc(Nc5ccc(OCc6cccc(F)c6)c(Cl)c5)c4c3)c2)CC1 (stereo unspecified)
6.17 |  | OC(CN1CC[C@@H](F)C1)Cn1ccc(-c2ccc3ncnc(Nc4ccc(OCc5cccc(F)c5)c(Cl)c4)c3c2)c1 (stereo partly specified)

pIC50 (EGFR (human) [1]) | pIC50 (EGFR (human) [2]) | SMILES
6.85 |  | CC(Nc1ncnc2ccc(-n3cc(CCO)c(C(=O)N4CCOCC4)c3)cc12)c1ccccc1 (stereo unspecified)
5.90 |  | Fc1cccc(COc2ccc(Nc3ncnc4ccc(-c5ccn(CCN6CCN(C7CC7)CC6)c5)cc34)cc2Cl)c1
5.87 |  | OC1CCN(C[C@@H](O)Cn2ccc(-c3ccc4ncnc(Nc5ccc(OCc6cccc(F)c6)c(Cl)c5)c4c3)c2)CC1
5.84 |  | O=S1(=O)CCN(CC(O)Cn2ccc(-c3ccc4ncnc(Nc5ccc(OCc6cccc(F)c6)c(Cl)c5)c4c3)c2)CC1 (stereo unspecified)
6.31 |  | O=S1(=O)CCC(CNCc2ccn(-c3ccc4ncnc(Nc5ccc(OCc6cccc(F)c6)c(Cl)c5)c4c3)c2)CC1
5.42 |  | CC(=O)N[C@@H]1CCN(CC(O)Cn2ccc(-c3ccc4ncnc(Nc5ccc(OCc6cccc(F)c6)c(Cl)c5)c4c3)c2)C1 (stereo partly specified)
6.24 |  | COCCNCC(O)Cn1ccc(-c2ccc3ncnc(Nc4ccc5c(cnn5Cc5cccc(F)c5)c4)c3c2)c1 (stereo unspecified)
6.57 |  | CCOC(=O)N1CCN(CC(O)Cn2ccc(-c3ccc4ncnc(Nc5ccc6c(cnn6Cc6cccc(F)c6)c5)c4c3)c2)CC1 (stereo unspecified)
5.83 |  | O=C(Cn1ccc(-c2ccc3ncnc(Nc4ccc(OCc5cccc(F)c5)c(Cl)c4)c3c2)c1)N1CCS(=O)(=O)CC1
7.22 |  | OCCc1cn(-c2ccc3ncnc(Nc4ccc(F)c(Cl)c4)c3c2)cc1CN1CCCC1
6.82 |  | CN(C)Cc1cn(-c2ccc3ncnc(Nc4ccc(F)c(Cl)c4)c3c2)cc1CCO
6.30 |  | O=C(Cn1ccc(-c2ccc3ncnc(Nc4ccc(OCc5cccc(F)c5)c(Cl)c4)c3c2)c1)N1CCSC1
6.26 |  | OC(CN1CCSC1)Cn1ccc(-c2ccc3ncnc(Nc4ccc(OCc5cccc(F)c5)c(Cl)c4)c3c2)c1 (stereo unspecified)
6.60 |  | OC[C@@H]1CCCN1C[C@@H](O)Cn1ccc(-c2ccc3ncnc(Nc4ccc(OCc5cccc(F)c5)c(Cl)c4)c3c2)c1
5.92 |  | Fc1cccc(COc2ccc(Nc3ncnc4ccc(-c5ccn(CCc6ccccn6)c5)cc34)cc2Cl)c1
6.05 |  | Fc1cccc(COc2ccc(Nc3ncnc4ccc(-c5ccn(Cc6ccccn6)c5)cc34)cc2Cl)c1
6.28 |  | OC(CN1CCC(N2CCCCC2)CC1)Cn1ccc(-c2ccc3ncnc(Nc4ccc5c(cnn5Cc5cccc(F)c5)c4)c3c2)c1 (stereo unspecified)
6.15 |  | OC(CNCCN1CCOCC1)Cn1ccc(-c2ccc3ncnc(Nc4ccc5c(cnn5Cc5cccc(F)c5)c4)c3c2)c1 (stereo unspecified)
6.04 |  | O=S1(=O)CCC(NCC(O)Cn2ccc(-c3ccc4ncnc(Nc5ccc6c(cnn6Cc6cccc(F)c6)c5)c4c3)c2)CC1 (stereo unspecified)
6.45 |  | Fc1cccc(Cn2ncc3cc(Nc4ncnc5ccc(-c6ccn(CCOC7CCCCO7)c6)cc45)ccc32)c1 (stereo unspecified)
6.42 |  | Fc1cccc(COc2ccc(Nc3ncnc4ccc(-c5ccn(C[C@H]6CCO6)c5)cc34)cc2Cl)c1
6.25 |  | CC(Nc1ncnc2ccc(-n3cc(CCO)c(CN4CCCCC4)c3)cc12)c1ccccc1 (stereo unspecified)
5.48 |  | CCOC(=O)C1CCN(C(=O)Cn2ccc(-c3ccc4ncnc(Nc5ccc(OCc6cccc(F)c6)c(Cl)c5)c4c3)c2)CC1
6.34 |  | OCCN1CCN(CC(O)Cn2ccc(-c3ccc4ncnc(Nc5ccc6c(cnn6Cc6cccc(F)c6)c5)c4c3)c2)CC1 (stereo unspecified)
